Assay results published in patent publication US20180084784A1, “METHODS AND COMPOSITIONS FOR CONTROLLING FUNGUS AND FUNGAL SPORES AND IMPROVING PLANT QUALITY” (BAYER CROPSCIENCE LP, priority 2016, published 2018).
Where two headings read alike, the source gives them in different places.

Key:
[1] = tested on: Pythium aphanidermatum zoospores
Procedure: Tests were conducted on fescue leaf blades. […] Two agar plugs containing Pythium aphanidermatum mycelium were placed in the jar containing the fescue leaves and allowed to incubate for 5 days.
A 1.0 ml aliquot was removed from each treatment and streaked onto potato dextrose agar. […] After five days the plates were examined for Pythium growth.

[2] = tested on: Pythium aphanidermatum zoospores; experiment: Example 3: hydrogen peroxide alone and hydrolase enzyme alone, 12 days incubation; assay type: cell-based
Procedure: Tests were conducted on fescue leaf blades. […] Two agar plugs containing Pythium aphanidermatum mycelium were placed in the jar containing the fescue leaves and allowed to incubate for 12 days. Ten jars were used in total. […] Each of these jars was subject to the following hydrogen peroxide treatments: […] The remaining five jars were used for testing the effect of hydrolase enzyme alone. Each of these jars was subject to the following enzyme treatments: […] (2) 0.016% enzyme v/v concentration; (3) 0.0016% enzyme v/v concentration; […]

[3] = tested on: Pythium aphanidermatum zoospores; experiment: Example 4: hydrogen peroxide alone and enzyme alone, 8 days incubation; assay type: cell-based
Procedure: Tests were conducted on fescue leaf blades. […] Eleven jars were used in total. […] The remaining six jars were used for testing the effect of hydrolase enzyme alone. Each of these jars was subject to the following enzyme treatments: (1) untreated; (2) 0.16% enzyme v/v concentration; (3) 0.088% enzyme v/v concentration; […] (5) 0.0142% enzyme v/v concentration; and (6) 0.0124% enzyme v/v concentration.

[4] = tested on: Pythium aphanidermatum zoospores; experiment: Example 5: enzyme and hydrogen peroxide, alone and combined; assay type: cell-based
Procedure: (§1) Tests were conducted on fescue leaf blades. […] Two agar plugs containing Pythium aphanidermatum mycelium were placed in the jar containing the fescue leaves and allowed to incubate for 7 days.
(§2) A 1.0 ml aliquot was removed from each treatment and streaked onto potato dextrose agar.

[5] = tested on: Pythium aphanidermatum zoospores; experiment: Example 6: enzyme and hydrogen peroxide, alone and combined; assay type: cell-based
Procedure: as §1, §2

[6] = tested on: Pythium aphanidermatum zoospores; experiment: Example 8: enzyme and hydrogen peroxide, alone and combined; assay type: cell-based
Procedure: as §1, §2

[7] = tested on: Pythium aphanidermatum zoospores; experiment: Example 9: enzyme and hydrogen peroxide, alone and combined; assay type: cell-based
Procedure: as §1
A 1.0 mL aliquot was removed from each treatment and streaked onto potato dextrose agar.

[8] = tested on: Pythium aphanidermatum zoospores; experiment: Example 7: enzyme and hydrogen peroxide, confirmation of Example 6
Procedure: Tests were conducted on fescue leaf blades. Five one-inch long fescue leaf blades were placed in 100 ml water in a 250 ml jar and sterilized for 2 consecutive days for 20 min. Two agar plugs containing Pythium aphanidermatum mycelium were placed in the jar containing the fescue leaves and allowed to incubate for 7 days.
A 1.0 ml aliquot was removed from each treatment and streaked onto potato dextrose agar. […] After three days the plates were examined for Pythium growth.

[9] = 0.0003% hydrogen peroxide v/v concentration
[10] = 0.003% hydrogen peroxide v/v concentration
[11] = 0.03% hydrogen peroxide v/v concentration
[12] = 0.006% hydrogen peroxide v/v concentration
[13] = 0.012% hydrogen peroxide v/v concentration
[14] = 0.014% hydrogen peroxide v/v concentration
[15] = 0.016% hydrogen peroxide v/v concentration
[16] = 0.018% hydrogen peroxide v/v concentration
[17] = 0.02% hydrogen peroxide v/v concentration

## OO [hydrogen peroxide]
[1]; [9]
  % Reduction of Pythium: 0%
  Number of plates (4 reps) with Pythium growth after 5 days: 4
[1]; [10]
  % Reduction of Pythium: 0%
  Number of plates (4 reps) with Pythium growth after 5 days: 4
[1]; [11]
  % Reduction of Pythium: 75%
  Number of plates (4 reps) with Pythium growth after 5 days: 1
[1]; 0.3% hydrogen peroxide v/v concentration
  % Reduction of Pythium: 100%
[1]; 1.5% hydrogen peroxide v/v concentration
  % Reduction of Pythium: 100%
[2]; [10]
  % of Potato Dextrose Sugar Agar Plate Covered with Pythium: 100%
  Number of plates (4 reps) with Pythium growth after 3 days: 4
[2]; [12]
  % of Potato Dextrose Sugar Agar Plate Covered with Pythium: 50-90%
  Number of plates (4 reps) with Pythium growth after 3 days: 4
[2]; [13]
  % of Potato Dextrose Sugar Agar Plate Covered with Pythium: <50%
  Number of plates (4 reps) with Pythium growth after 3 days: 4
[2]; [11]
  % of Potato Dextrose Sugar Agar Plate Covered with Pythium: 0%
  Number of plates (4 reps) with Pythium growth after 3 days: 0
[2]; all tested concentrations of hydrogen peroxide except 0.03% v/v
  Pythium growth on plates: grew on all plates
[3]; [13]
  % of Potato Dextrose Sugar Agar Plate Covered with Pythium: 36.25%
[3]; [14]
  % of Potato Dextrose Sugar Agar Plate Covered with Pythium: 60%
[3]; [15]
  % of Potato Dextrose Sugar Agar Plate Covered with Pythium: 0%
[3]; [16]
  % of Potato Dextrose Sugar Agar Plate Covered with Pythium: 0%
[4]; [10]
  % of Potato Dextrose Sugar Agar Plate Covered with Pythium: 100%
  Number of plates (4 reps) with Pythium growth after 3 days: 4
[4]; [14]
  % of Potato Dextrose Sugar Agar Plate Covered with Pythium: 71.25%
  Number of plates (4 reps) with Pythium growth after 3 days: 4
[5]; [14]
  % of Potato Dextrose Sugar Agar Plate Covered with Pythium: 17.5%
  Number of plates (4 reps) with Pythium growth after 3 days: 1
[5]; [15]
  % of Potato Dextrose Sugar Agar Plate Covered with Pythium: 10%
  Number of plates (4 reps) with Pythium growth after 3 days: 1
[5]; [16]
  % of Potato Dextrose Sugar Agar Plate Covered with Pythium: 17.5%
  Number of plates (4 reps) with Pythium growth after 3 days: 1
[6]; [14]
  % of Potato Dextrose Sugar Agar Plate Covered with Pythium: 90%
  Number of plates (4 reps) with Pythium growth after 3 days: 4
[6]; [17]
  % of Potato Dextrose Sugar Agar Plate Covered with Pythium: 56.3%
  Number of plates (4 reps) with Pythium growth after 3 days: 4
[7]; [14]
  % of Potato Dextrose Sugar Agar Plate Covered with Pythium: 100%
  Number of plates (4 reps) with Pythium growth after 3 days: 4
[7]; [15]
  % of Potato Dextrose Sugar Agar Plate Covered with Pythium: 63.75%
  Number of plates (4 reps) with Pythium growth after 3 days: 4
[7]; [16]
  % of Potato Dextrose Sugar Agar Plate Covered with Pythium: 91.25%
  Number of plates (4 reps) with Pythium growth after 3 days: 4
[7]; [17]
  % of Potato Dextrose Sugar Agar Plate Covered with Pythium: 25%
  Number of plates (4 reps) with Pythium growth after 3 days: 4
[8]; [14]
  % of Potato Dextrose Sugar Agar Plate Covered with Pythium: 72.5%
  Number of plates (4 reps) with Pythium growth after 3 days: 4
[8]; [15]
  % of Potato Dextrose Sugar Agar Plate Covered with Pythium: 38.8%
  Number of plates (4 reps) with Pythium growth after 3 days: 4
[8]; [16]
  % of Potato Dextrose Sugar Agar Plate Covered with Pythium: 85.8%
  Number of plates (4 reps) with Pythium growth after 3 days: 4
